This is an account of results in US8501786B2, “Hydroxymethyl pyrrolidines as beta 3 adrenergic receptor agonists” (Merck Sharp & Dohme Corp., priority 2009, dated 2013).

Where only a bound is given, the exact number is not on record here.

For the assay, the target named is T1, human β3 adrenergic receptor (Homo sapiens, UniProt P13945).
T1 construct: stably transfected with the cloned β-adrenergic receptor (β1, β2 or β3); expressed in transfected cells; host or cells: Chinese hamster ovary (CHO) cells, stably transfected
T1 sequence (P13945 whole entry): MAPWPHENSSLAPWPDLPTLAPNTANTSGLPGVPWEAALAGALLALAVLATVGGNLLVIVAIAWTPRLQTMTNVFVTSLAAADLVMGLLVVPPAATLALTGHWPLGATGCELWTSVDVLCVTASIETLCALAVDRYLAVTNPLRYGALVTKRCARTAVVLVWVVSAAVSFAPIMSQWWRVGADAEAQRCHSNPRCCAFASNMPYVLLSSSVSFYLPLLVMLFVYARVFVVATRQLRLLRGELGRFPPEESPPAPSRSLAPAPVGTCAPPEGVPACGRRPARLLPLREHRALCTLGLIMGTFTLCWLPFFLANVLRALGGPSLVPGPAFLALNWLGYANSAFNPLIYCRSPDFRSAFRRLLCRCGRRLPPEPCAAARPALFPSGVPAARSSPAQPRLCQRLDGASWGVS
The experiment in a line: Functional assay: cAMP production (LANCE TR-FRET) in CHO cells stably transfected with cloned β3 adrenergic receptor. It counts as cell-based. To be noted: Table 3; cAMP production, CHO cells expressing human β3 AR; read-out: Human β3 functional. The protocol: Functional Assay: cAMP production in response to ligand is measured according to Barton, et al. (1991, Agonist-induced desensitization of D2 dopamine receptors in human Y-79 retinoblastoma cells. Mol. Pharmacal. v3229:650-658) modified as follows, cAMP production is measured using a homogenous time-resolved fluorescence resonance energy transfer immunoassay (LANCE™, Perkin Elmer) according to the manufacture's instructions. Chinese hamster ovary (CHO) cells, stably transfected with the cloned β-adrenergic receptor (β1, β2 or β3) are harvested after 3 days of subculturing. Harvesting of cells is done with Enzyme-free Dissociation Media (Specialty Media). Cells are then counted and resuspended in assay buffer (Hank's Balanced salt solution supplemented with 5 mM HEPES, […]) containing a phosphodiesterase inhibitor (IBMX, 0.6 mM). The reaction is initiated by mixing 6,000 cells in 6 μL with 6 μL Alexa Fluor labeled cAMP antibody (LANCE™ kit) which is then added to an assay well containing 12 μL of compound (diluted in assay buffer to 2× final concentration). The reaction proceeds for 30 min at room temperature and is terminated by the addition of 24 ul detection buffer (LANCE™ kit). The assay plate is then incubated for 1 h at room temperature and time-resolved fluorescence measured on a Perkin Elmer Envision reader or equivalent. The unknown cAMP level is determined by comparing fluorescence levels to a cAMP standard curve.
The non-selective, full agonist β-adrenergic ligand isoproterenol is used at all three receptors to determine maximal stimulation. The human β3 adrenergic receptor (AR) selective ligand (S)-N-[4-[2-[[2-hydroxy-3-(4-hydroxyphenoxy)propyl]amino]ethyl]-phenyl]-4-iodobenzenesulfonamide is used as a control in all assays. Isoproterenol is titrated at a final concentration in the assay of 10^-10 M to 10-5 and the selective ligand (S)-N-[4-[2-[[2-hydroxy-3-(4-hydroxyphenoxy)propyl]amino]ethyl]phenyl]-4-iodobenzenesulfonamide is titrated at the β3 receptor at concentration of 10^-10 M to 10^-5 M. Unknown ligands are titrated at all 3 β-adrenergic receptor subtypes at a final concentration in the assay of 10^-10 M to 10^-5 M to determine the EC50. The EC50 is defined as the concentration of compound that gives 50% activation of its own maximum. Data are analyzed using Microsoft Excel and Graphpad Prism or an internally developed data analysis software package.

`Cc1[nH]nc2c1CCC2C(=O)Nc1ccc(CC2CC[C@H]([C@H](O)c3cccnc3)N2)cc1` (single isomer, unassigned) [Example 154]: the EC50 lay within 1 to 10 nM. On to `Cc1[nH]nc2c1CCC2C(=O)Nc1ccc(CC2CC[C@H]([C@H](O)c3cccnc3)N2)cc1` (single isomer, unassigned) [Example 155], for which the EC50 lay in the range of 11 to 100 nM. Regarding `O=C(Nc1ccc(CC2CC[C@H]([C@H](O)c3cccnc3)N2)cc1)C1CCc2sc(F)nc21` (single isomer, unassigned) [Example 156], the EC50 lay in the range of 1 to 10 nM.

Consider `O=C(Nc1ccc(CC2CC[C@H]([C@H](O)c3cccnc3)N2)cc1)C1CCc2sc(F)nc21` (single isomer, unassigned) [Example 157], for which the EC50 lay within 1 to 10 nM. The value for `O=C(Nc1ccc(CC2CC[C@H]([C@H](O)c3cccnc3)N2)cc1)C1CCc2sc(Br)nc21` (single isomer, unassigned) [Example 158] was less than 1 nM; that for `O=C(Nc1ccc(CC2CC[C@H]([C@H](O)c3cccnc3)N2)cc1)C1CCc2sc(Br)nc21` (single isomer, unassigned) [Example 159] was 11 to 100 nM. The same measure for `O=C(Nc1ccc(CC2CC[C@H]([C@H](O)c3cccnc3)N2)cc1)C1CCc2nccc(=O)n21` (single isomer, unassigned) [Example 160]: 1 to 10 nM. With `O=C(Nc1ccc(CC2CC[C@H]([C@H](O)c3cccnc3)N2)cc1)C1CCc2nccc(=O)n21` (single isomer, unassigned) [Example 161], the EC50 fell in the range of 1 to 10 nM. The value for `CC(C(=O)Nc1ccc(CC2CC[C@H]([C@H](O)c3cccnc3)N2)cc1)n1ncccc1=O` (single isomer, unassigned) [Example 162] was 1 to 10 nM; that for `CC(C(=O)Nc1ccc(C[C@@H]2CC[C@H]([C@H](O)c3cccnc3)N2)cc1)n1ncccc1=O` (single isomer, unassigned) [Example 163] was 1 to 10 nM; that for `CC(C(=O)Nc1ccc(CC2CC[C@H]([C@H](O)c3cccnc3)N2)cc1)n1cnccc1=O` (single isomer, unassigned) [Example 164] was 1 to 10 nM. As for `CC(C(=O)Nc1ccc(CC2CC[C@H]([C@H](O)c3cccnc3)N2)cc1)n1cnccc1=O` (single isomer, unassigned) [Example 165], the EC50 fell in the range of 1 to 10 nM.

In the case of `CC(C(=O)Nc1ccc(CC2CC[C@H]([C@H](O)c3cccnc3)N2)cc1)n1cccnc1=O` (single isomer, unassigned) [Example 166], the EC50 is 1 to 10 nM.

On to `CC(C(=O)Nc1ccc(C[C@@H]2CC[C@H]([C@H](O)c3cccnc3)N2)cc1)n1cccnc1=O` (single isomer, unassigned) [Example 167], for which the EC50 lay in the range of 1 to 10 nM. For `Cc1noc2c1CCC2C(=O)Nc1ccc(CC2CC[C@H]([C@H](O)c3cccnc3)N2)cc1` (single isomer, unassigned) [Example 168], the EC50 lay in the range of 1 to 10 nM. With `Cc1noc2c1CCC2C(=O)Nc1ccc(CC2CC[C@H]([C@H](O)c3cccnc3)N2)cc1` (single isomer, unassigned) [Example 169], the EC50 lay within 11 to 100 nM. The value for `Cc1nnc2n1CCC2C(=O)Nc1ccc(CC2CC[C@H]([C@H](O)c3cccnc3)N2)cc1` (single isomer, unassigned) [Example 170] was 11 to 100 nM; that for `Cc1nnc2n1CCC2C(=O)Nc1ccc(CC2CC[C@H]([C@H](O)c3cccnc3)N2)cc1` (single isomer, unassigned) [Example 171] was 11 to 100 nM. The same measure for `CC(C(=O)Nc1ccc(CC2CC[C@H]([C@H](O)c3cccnc3)N2)cc1)c1nccs1` (single isomer, unassigned) [Example 174]: 1 to 10 nM. Regarding `CC(C(=O)Nc1ccc(CC2CC[C@H]([C@H](O)c3cccnc3)N2)cc1)c1nccs1` (single isomer, unassigned) [Example 175], the EC50 lay in the range of 1 to 10 nM. Turning to `Cc1cc(C(C)C(=O)Nc2ccc(CC3CC[C@H]([C@H](O)c4cccnc4)N3)cc2)[nH]n1` (single isomer, unassigned) [Example 176], the EC50 is 11 to 100 nM. As for `Cc1cc(C(C)C(=O)Nc2ccc(CC3CC[C@H]([C@H](O)c4cccnc4)N3)cc2)[nH]n1` (single isomer, unassigned) [Example 177], the EC50 lay in the range of 101 to 1000 nM. `CC(C(=O)Nc1ccc(CC2CC[C@H]([C@H](O)c3cccnc3)N2)cc1)c1ccn[nH]1` (single isomer, unassigned) [Example 178]: the EC50 was in the range of 1 to 10 nM. The same measure for `CC(C(=O)Nc1ccc(CC2CC[C@H]([C@H](O)c3cccnc3)N2)cc1)c1ccn[nH]1` (single isomer, unassigned) [Example 179]: 11 to 100 nM; for `CC(C(=O)Nc1ccc(CC2CC[C@H]([C@H](O)c3cccnc3)N2)cc1)c1nnn(C)n1` (single isomer, unassigned) [Example 180]: 11 to 100 nM. `CC(C(=O)Nc1ccc(CC2CC[C@H]([C@H](O)c3cccnc3)N2)cc1)c1nnn(C)n1` (single isomer, unassigned) [Example 181]: the EC50 lay within 11 to 100 nM. As to `CC(C(=O)Nc1ccc(CC2CC[C@H]([C@H](O)c3cccnc3)N2)cc1)n1cnnn1` (single isomer, unassigned) [Example 182], the EC50 was 11 to 100 nM.

With `CC(C(=O)Nc1ccc(CC2CC[C@H]([C@H](O)c3cccnc3)N2)cc1)n1cnnn1` (single isomer, unassigned) [Example 183], the EC50 fell in the range of 1 to 10 nM.

As to `CCC(C(=O)Nc1ccc(CC2CC[C@H]([C@H](O)c3cccnc3)N2)cc1)n1cccn1` (single isomer, unassigned) [Example 184], the EC50 lay within 1 to 10 nM. With `CCC(C(=O)Nc1ccc(CC2CC[C@H]([C@H](O)c3cccnc3)N2)cc1)n1cccn1` (single isomer, unassigned) [Example 185], the EC50 was in the range of 1 to 10 nM. The same measure for `O=C(Nc1ccc(CC2CC[C@H]([C@H](O)c3cccnc3)N2)cc1)C1CCc2sc(Cl)nc21` (single isomer, unassigned) [Example 186]: less than 1 nM. In the case of `O=C(Nc1ccc(CC2CC[C@H]([C@H](O)c3cccnc3)N2)cc1)C1CCc2sc(Cl)nc21` (single isomer, unassigned) [Example 187], the EC50 was in the range of 11 to 100 nM. The same measure for `O=C(Nc1ccc(CC2CC[C@H]([C@H](O)c3cccnc3)N2)cc1)C1CCc2sc(CO)nc21` (single isomer, unassigned) [Example 188]: 1 to 10 nM; for `O=C(Nc1ccc(CC2CC[C@H]([C@H](O)c3cccnc3)N2)cc1)C1CCc2sc(CO)nc21` (single isomer, unassigned) [Example 189]: 11 to 100 nM; for `O=C(Nc1ccc(CC2CC[C@H]([C@H](O)c3cccnc3)N2)cc1)C1CCc2scnc21` (single isomer, unassigned) [Example 190]: less than 1 nM.

In the case of `O=C(Nc1ccc(CC2CC[C@H]([C@H](O)c3cccnc3)N2)cc1)C1CCc2scnc21` (single isomer, unassigned) [Example 191], the EC50 was in the range of 11 to 100 nM.

Regarding `O=C(Nc1ccc(CC2CC[C@H]([C@H](O)c3cccnc3)N2)cc1)C1CCc2nc3ccccc3c(=O)n21` (single isomer, unassigned) [Example 192], the EC50 was 11 to 100 nM. Take `O=C(Nc1ccc(CC2CC[C@H]([C@H](O)c3cccnc3)N2)cc1)C1CCc2nc3ccccc3c(=O)n21` (single isomer, unassigned) [Example 193]: the EC50 lay in the range of 1 to 10 nM.

For the compound `O=C(Nc1ccc(CC2CC[C@H]([C@H](O)c3cccnc3)N2)cc1)[C@@H]1CCc2ncnn21` (single isomer, unassigned) [Example 194], the EC50 was in the range of 11 to 100 nM.

In the case of `CC(C(=O)Nc1ccc(CC2CC[C@H]([C@H](O)c3cccnc3)N2)cc1)c1cscn1` (single isomer, unassigned) [Example 195], the EC50 is less than 1 nM.

For the compound `CC(C(=O)Nc1ccc(CC2CC[C@H]([C@H](O)c3cccnc3)N2)cc1)c1cscn1` (single isomer, unassigned) [Example 196], the EC50 is 11 to 100 nM. Take `O=C1CC[C@@H](C(=O)Nc2ccc(CC3CC[C@H]([C@H](O)c4cccnc4)N3)cc2)N1` (single isomer, unassigned) [Example 197]: the EC50 lay in the range of 101 to 1000 nM. The same measure for `CC(C(=O)Nc1ccc(CC2CC[C@H]([C@H](O)c3cccnc3)N2)cc1)n1cc(C(=O)O)nn1` (single isomer, unassigned) [Example 198]: 11 to 100 nM. The value for `CC(C(=O)Nc1ccc(CC2CC[C@H]([C@H](O)c3cccnc3)N2)cc1)n1cc(C(=O)O)nn1` (single isomer, unassigned) [Example 199] was 11 to 100 nM.
